Patent publication US8575338B2, “Pyrimidine, pyridine and triazine derivatives as maxi-K channel openers” (Mitsubishi Tanabe Pharma Corporation, priority 2008, dated 2013)

Target: T1, human BKαβ1 channels (Homo sapiens, UniProt Q12791)
T1 construct: expressed in transfected cells; host or cells: CHO cells (G418 and hygromycin selection)
Experiment: BK current in CHO cells expressing human BKαβ1 (PatchXpress whole-cell patch clamp), EC100
Type: cell-based
Settings: drug concentration causing 100% increase of BK current
Description: Methods for Testing Compounds on Human BKαβ1 Channels Expressed Cho Cells
CHO cells expressing human BKαβ1 were cultured in T75 or 6 well cell culture cluster. Medium: DMEM/F12+10% FBS+0.5 mg/mL G418/genetecin+0.1 mg/mL Hygromycin. Split cells every 3-4 days at 80-90% confluence. Use cells for experiments 60-72 hrs after re-passage and at ˜90% confluence.
Trypsin solution (0.05% Trypsin+0.1% EDTA), Ca^2+ free PBS and culture medium were warmed to 37° C. Inspect the T75 flask for cell confluence. Remove culture medium and add warm Ca^2+ free PBS to wash cells. Remove Ca^2+ free PBS and add warm Trypsin solution. Put the T75 flask back to 37° C. incubator for about 4.5 minutes. Stop Trypsin activity by adding culture medium. Spin the cells down. Suspend cells in 120-160 μL external solution for BK current recording and use the cells as soon as possible.
PatchXpress Sealchip 16 electrodes (AVIVA Biosciences) and PatchXpress 7000A (Axon Instruments, Inc) were used for BK current recording. Flat bottom 1.5 mL glass vial (HiPep Laboratories) were used for containing external solutions (±compounds). The holes in the sealchip (equivalent to patch electrode) had resistance about 1.5 MΩ. Cell membrane capacitance was compensated and access resistance was also compensated by 40%. Voltage-clamp protocol: Holding voltage=0 mV. Record BK current during 200-ms steps between +80 to +120 mV in 10 mV increments and 2 sec inter-pulse interval. On-line digital leak subtraction was performed by a P/−4 procedure. After whole-cell configuration was established, 2 minute was used to optimize access resistance. Then the chamber was washed with control bath solution for 1 minute to remove excessive cells. Control bath solution was added with robotic pipette and control BK current was recorded after 1 minute equilibrium time. For each drug concentration, 45 μL drug solution was added three times with “suction before adding” mode which left old solution. For each drug addition, 1 minute equilibrium time was given. BK current was measured at each drug concentrations (usually within 3.5 minutes after first drug addition). Calculate % change of BK current at the voltage step when the control BK current first exceeding 200 pA. If the control BK current was less than 200 pA at 120 mV, the cell was not used. % changes were calculated as 100*(Id−Ic)/Ic, where Id was the current amplitude in the presence of drug and Ic was the control current amplitude.
EC100 was defined as the drug concentration causing 100% increase of BK current calculated by the method described above. EC100 was determined by the data points just below and above 100%. % Increase of BK current was plotted against log [drug concentration]. A straight line connected two data points flanking 100%. From this straight line, the concentration corresponding to 100% increase of BK current was determined as EC100.
Compounds were dissolved in DMSO to make 10 mM stock solutions. Subsequent dilutions were made with external solution. The testing drug concentrations were 0.1, 0.3, 1, 3 and 10 μM depending on the potency of compounds. The highest DMSO concentration was 0.1%. External solution (in mM): 140 NaCl, 4 KCl, 1 MgCl2, 2 CaCl2, 10 Glucose, 10 HEPES; pH=7.4 with NaOH. Internal solution (in mM): 140 KCl, 5 EGTA, 1 MgCl2, 5 MgATP, 0.2 CaCl2, 5 HEPES; pH=7.2 with KOH.

T1 sequence (Q12791 whole entry): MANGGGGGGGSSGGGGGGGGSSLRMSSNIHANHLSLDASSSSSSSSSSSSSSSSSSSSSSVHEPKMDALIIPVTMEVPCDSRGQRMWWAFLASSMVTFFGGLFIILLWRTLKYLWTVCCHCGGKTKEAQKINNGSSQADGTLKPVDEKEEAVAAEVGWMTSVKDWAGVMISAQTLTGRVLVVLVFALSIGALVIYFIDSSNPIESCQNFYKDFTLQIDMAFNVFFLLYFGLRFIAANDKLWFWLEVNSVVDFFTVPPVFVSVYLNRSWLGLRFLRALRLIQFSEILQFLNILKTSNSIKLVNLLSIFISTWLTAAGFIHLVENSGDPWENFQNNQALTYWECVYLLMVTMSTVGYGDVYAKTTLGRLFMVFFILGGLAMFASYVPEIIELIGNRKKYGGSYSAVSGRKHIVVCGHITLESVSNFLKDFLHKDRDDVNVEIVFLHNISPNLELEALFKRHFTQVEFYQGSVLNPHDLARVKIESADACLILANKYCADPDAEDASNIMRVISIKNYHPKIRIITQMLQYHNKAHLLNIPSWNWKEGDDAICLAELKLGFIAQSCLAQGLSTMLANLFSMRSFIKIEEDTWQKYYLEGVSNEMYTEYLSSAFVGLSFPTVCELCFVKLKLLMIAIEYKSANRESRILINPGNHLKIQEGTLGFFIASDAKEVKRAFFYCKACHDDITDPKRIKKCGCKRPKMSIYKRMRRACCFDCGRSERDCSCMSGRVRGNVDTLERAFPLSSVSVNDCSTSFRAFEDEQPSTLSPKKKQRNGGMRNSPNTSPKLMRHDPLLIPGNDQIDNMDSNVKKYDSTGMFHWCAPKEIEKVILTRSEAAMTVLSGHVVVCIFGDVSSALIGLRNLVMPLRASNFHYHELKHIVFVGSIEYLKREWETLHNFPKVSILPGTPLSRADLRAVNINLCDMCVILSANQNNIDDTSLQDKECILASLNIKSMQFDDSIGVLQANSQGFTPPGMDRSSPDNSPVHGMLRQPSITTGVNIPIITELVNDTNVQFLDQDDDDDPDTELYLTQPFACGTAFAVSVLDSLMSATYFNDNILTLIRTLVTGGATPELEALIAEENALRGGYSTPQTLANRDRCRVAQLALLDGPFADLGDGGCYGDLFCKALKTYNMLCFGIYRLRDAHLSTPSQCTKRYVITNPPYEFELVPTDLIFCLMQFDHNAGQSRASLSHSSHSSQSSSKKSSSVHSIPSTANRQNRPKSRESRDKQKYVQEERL
T1 sequence (Q16558 whole entry partner): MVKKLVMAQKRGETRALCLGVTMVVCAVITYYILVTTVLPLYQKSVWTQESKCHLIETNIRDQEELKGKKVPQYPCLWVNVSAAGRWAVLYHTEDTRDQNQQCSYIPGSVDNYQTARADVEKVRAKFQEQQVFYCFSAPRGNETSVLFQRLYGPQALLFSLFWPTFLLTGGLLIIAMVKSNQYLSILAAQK

Row | EC100 [µM] | SMILES
1 | 0.12 | CCOc1cc(F)ccc1-c1cc(OC2(C(=O)O)CC2)nc(-c2ccc(F)cc2)n1 [Example 709]
2 | 0.14 | CC(C)Oc1cc(F)ccc1-c1cc(OC2(C(=O)O)CC2)nc(-c2ccc(F)cc2)n1 [Example 710]
3 | 0.48 | O=C(O)C1(Oc2cc(-c3ccc(C(F)(F)F)nc3)nc(-c3ccc(Cl)c(F)c3)n2)CC1 [Example 888]
4 | 0.62 | CCOc1ccc(-c2cc(OC3(C(=O)O)CC3)nc(-c3ccc(F)cc3)n2)c(C)c1 [Example 897]
5 | 0.15 | Cc1ccc(C(F)(F)F)cc1-c1cc(OC2(C(=O)O)CC2)nc(-c2ccc(F)cc2)n1 [Example 906]
6 | 0.12 | CCOc1cc(F)cc(-c2nc(-c3ccc(F)cc3)nc(OC3(C(=O)[O-])CC3)c2C)c1.[Na+] [Example 978]
7 | 0.14 | Cc1cc(-c2nc(-c3ccc(F)cc3)nc(OC3(C(=O)[O-])CC3)c2C)ccc1F.[Na+] [Example 999]
8 | 0.14 | Cc1cc(F)cc(-c2nc(-c3ccc(F)cc3)nc(OC3(C(=O)[O-])CC3)c2C)c1.[Na+] [Example 1000]
9 | 0.34 | Cc1c(OC2(C(=O)O)CC2)nc(-c2ccc(Cl)cc2)nc1-c1ccc(F)cc1 [Example 1015]
10 | 0.17 | CCOCc1ccc(-c2cc(OC3(C(=O)O)CC3)nc(-c3ccc(Cl)cc3)n2)c(C)c1 [Example 1034]
11 | 0.04 | Cc1ccc(C(F)(F)F)cc1-c1nc(OC2(C(=O)[O-])CC2)nc(-c2ccc(Cl)cc2)n1.[Na+] [Example 1093]
12 | 0.3 | O=C([O-])C1(Oc2cc(N3CCc4ccc(F)cc4C3)nc(-c3ccc(Cl)cc3)n2)CC1.[Na+] [Example 1095]
13 | 0.36 | O=C([O-])C1(Oc2cc(N3CCc4cc(F)ccc43)nc(-c3ccc(F)cc3)n2)CC1.[Na+] [Example 1108]
14 | 0.12 | O=C([O-])C1(Oc2cc(N3CCc4ccc(Cl)cc4C3)nc(-c3ccc(F)cc3)n2)CC1.[Na+] [Example 1111]
15 | 1.31 | CCOCC1CCN(c2nc(-c3ccc(Cl)cc3)nc(OC3(C(=O)O)CC3)c2C)CC1 [Example 1116]
16 | 0.95 | COCCC1CCN(c2nc(-c3ccc(F)cc3)nc(OC3(C(=O)O)CC3)c2C)CC1 [Example 1123]
17 | 0.61 | CCCOC1CCN(c2nc(-c3ccc(Cl)cc3)nc(OC3(C(=O)[O-])CC3)c2F)CC1.[Na+] [Example 1129]
18 | 0.13 | CCCOC1CCN(c2nc(OC3(C(=O)O)CC3)cc(-c3ccc(C)c(Cl)c3)n2)CC1 [Example 1148]
19 | 1.03 | CC(C)COC1CCN(c2nc(OC3(C(=O)O)CC3)cc(-c3ccc(Cl)cc3)n2)CC1 [Example 1182]
20 | 0.04 | O=C(O)C1(Oc2cc(-c3ccc(Cl)cc3)nc(N3CCc4cc(F)ccc4C3)n2)CC1 [Example 1192]
21 | 0.15 | CCOCC1CCN(c2nc(OC3(C(=O)[O-])CC3)cc(-c3ccc(Cl)s3)n2)CC1.[Na+] [Example 1197]

The next lines start with the compound.

Row | SMILES | EC100 [µM]
22 | CCc1ccc(F)cc1-c1cc(OC2(C(=O)O)CC2)nc(-c2ccc(F)cc2)n1 [Example 892] | 0.55
23 | COc1ccc(Cl)c(-c2cc(OC3(C(=O)O)CC3)nc(-c3ccc(F)cc3)n2)c1 [Example 900] | 0.36
24 | Cc1cc(C(F)(F)F)ccc1-c1cc(OC2(C(=O)O)CC2)nc(-c2ccc(F)cc2)n1 [Example 905] | 0.14
25 | N#Cc1cc(Cl)ccc1-c1cc(OC2(C(=O)O)CC2)nc(-c2ccc(Cl)cc2)n1 [Example 918] | 0.2
26 | COCc1cc(Cl)ccc1-c1cc(OC2(C(=O)O)CC2)nc(-c2ccc(Cl)cc2)n1 [Example 921] | 0.1
27 | COc1ccc(-c2nc(-c3ccc(F)cc3)nc(OC3(C(=O)[O-])CC3)c2C)cc1Cl.[Na+] [Example 982] | 0.1
28 | COc1cc(-c2nc(-c3ccc(F)cc3)nc(OC3(C(=O)[O-])CC3)c2C)ccc1Cl.[Na+] [Example 993] | 0.13
29 | COc1cc(-c2nc(-c3ccc(F)cc3)nc(OC3(C(=O)[O-])CC3)c2C)ccc1F.[Na+] [Example 996] | 0.58
30 | Cc1c(OC2(C(=O)[O-])CC2)nc(-c2ccc(F)cc2)nc1-c1ccc(Cl)s1.[Na+] [Example 1007] | 0.1
31 | COc1ccc(-c2nc(-c3ccc(Cl)cc3)nc(OC3(C(=O)O)CC3)c2C)cc1 [Example 1016] | 0.5
32 | Cc1cc(F)ccc1-c1cc(OC2(C(=O)O)CC2)nc(-c2ccc(F)cc2)c1 [Example 1087] | 0.36
33 | Cc1cc(Cl)ccc1-c1nc(OC2(C(=O)[O-])CC2)nc(-c2ccc(Cl)cc2)n1.[Na+] [Example 1088] | 0.14
34 | Cc1cc(C(F)(F)F)ccc1-c1nc(OC2(C(=O)O)CC2)nc(-c2ccc(Cl)cc2)n1 [Example 1092] | 0.02
35 | Cc1cc(OC(F)(F)F)ccc1-c1nc(OC2(C(=O)[O-])CC2)nc(-c2ccc(Cl)cc2)n1.[Na+] [Example 1094] | 0.03
36 | O=C([O-])C1(Oc2cc(N3CCc4cc(F)ccc4C3)nc(-c3ccc(Cl)cc3)n2)CC1.[Na+] [Example 1096] | 0.11
37 | CN(Cc1cccc(F)c1)c1cc(OC2(C(=O)[O-])CC2)nc(-c2ccc(F)cc2)n1.[Na+] [Example 1098] | 0.11

Row | SMILES | EC100 [µM]
38 | COc1ccc(CN(C)c2cc(OC3(C(=O)O)CC3)nc(-c3ccc(F)cc3)n2)cc1 [Example 1100] | 0.38
39 | O=C([O-])C1(Oc2cc(N3CCc4ccc(F)cc4C3)nc(-c3ccc(F)cc3)n2)CC1.[Na+] [Example 1109] | 0.07
40 | CCCOC1CCN(c2nc(-c3ccc(Cl)cc3)nc(OC3(C(=O)O)CC3)c2C)CC1 [Example 1114] | 0.41
41 | COCC1CCN(c2nc(-c3ccc(Cl)cc3)nc(OC3(C(=O)O)CC3)c2C)CC1 [Example 1115] | 1.74
42 | Cc1c(OC2(C(=O)O)CC2)nc(-c2ccc(Cl)cc2)nc1N1CCC(OCC2CC2)CC1 [Example 1118] | 0.42
43 | CCCCOC1CCN(c2nc(-c3ccc(Cl)cc3)nc(OC3(C(=O)[O-])CC3)c2C)CC1.[Na+] [Example 1119] | 0.73
44 | CCOCC1CCN(c2nc(-c3ccc(F)cc3)nc(OC3(C(=O)O)CC3)c2C)CC1 [Example 1122] | 0.9
45 | CCCCOC1CCN(c2nc(-c3ccc(F)cc3)nc(OC3(C(=O)[O-])CC3)c2C)CC1.[Na+] [Example 1125] | 0.5
46 | COCCCC1CCN(c2nc(-c3ccc(F)cc3)nc(OC3(C(=O)[O-])CC3)c2C)CC1.[Na+] [Example 1126] | 0.77
47 | CCOCC1CCN(c2nc(-c3ccc(Cl)cc3)nc(OC3(C(=O)[O-])CC3)c2F)CC1.[Na+] [Example 1131] | 0.23
48 | COCCC1CCN(c2nc(-c3ccc(Cl)cc3)nc(OC3(C(=O)[O-])CC3)c2F)CC1.[Na+] [Example 1132] | 0.41
49 | CCCOCC1CCN(c2nc(-c3ccc(Cl)cc3)nc(OC3(C(=O)[O-])CC3)c2F)CC1.[Na+] [Example 1133] | 1.29
50 | CCCOC1CCN(c2nc(OC3(C(=O)O)CC3)cc(-c3ccc(F)c(C(F)(F)F)c3)n2)CC1 [Example 1153] | 0.34
51 | O=C(O)C1(Oc2cc(-c3ccc(Cl)cc3)nc(N3CCc4ccc(F)cc4C3)n2)CC1 [Example 1191] | 0.02
52 | O=C([O-])C1(Oc2cc(-c3ccc(Cl)s3)nc(N3CCc4ccc(F)cc4C3)n2)CC1.[Na+] [Example 1202] | 0.2
